The text below walks through data of patent publication EP4380555B1, “COMPOSITION COMPRISING D-MANNOSE, N-ACETYLCYSTEINE AND PALMITOYLETHANOLAMIDE AND ITS USE FOR THE TREATMENT OF URIRNARY TRACT INFECTIONS” (Agave S.r.l., priority 2021, dated 2023).

One test concerns Klebsiella pneumoniae. In words: MBIC, comparison with D-mannose, crystal violet staining. In kind it is cell-based. As for the experimental part:
(§1) To determine the MBIC with the product Comp. 1 in Example 10 with respect to the D-mannose, 48-well plates were utilised. 200 µL of the product Comp. 1, prepared at a concentration of 2x with respect to the maximum concentration being tested, was dispensed into the first well and […] was added to the subsequent wells, performing serial dilutions of 1:2 up to the 8th well. Finally, 200 µL of each microorganism, at a concentration of 10^5, was inoculated into each well. The biofilm inhibition activity of the D-mannose at the same concentration as that present in the product Comp. 1 was also assessed. The multiwell plates were incubated at 37°C for 24 hours and then the supernatant present was removed, together with the planktonic bacteria not attached to the plate. The biofilm was then washed 3 times with PBS and subsequently the cells were fixed by means of incubation at 60°C for 2 hours, before being stained with crystal violet. 100 µL crystal violet dissolved in deionised water was dispensed into each well and, after 5 minutes of incubation at room temperature, each well was finally washed three times with PBS 1x. The biofilm inhibition activity was viewed by microscopic observation under stereomicroscope and optical microscope using the phase-contrast method. The final concentrations tested for each compound are stated in Table 6. Table 6 [table]

Test [1] has as its system Enterococcus faecium. The description is as above. In kind it is cell-based. As for the experimental part: as §1
Another test has as its system Escherichia coli. The test is described as above. Type of test: cell-based. As for the experimental part: as §1
Test [2] concerns Escherichia coli (DSM 1576). Nature of the test: MIC determination by broth dilution (CLSI M07), 96-well plates. Type of test: cell-based. As to conditions: E. coli; range tested: Comp. 1 100-0.05 g/L, D-mannose 65-0.03 g/L; 24 h. As for the experimental part: (§2) The antimicrobial activity of the product Comp. 1 in Example 10 was tested in vitro according to method CLSI M07 "Methods for dilution Antimicrobial susceptibility tests for bacteria that grow aerobically".
(§3) For this purpose, the MIC (Minimum Inhibitory Concentration) values were determined with respect to the main microorganisms responsible for urinary tract infections.
(§4) More specifically, the microorganisms utilised were: Escherichia coli (DSM 1576), Klebsiella pneumoniae (DSM 30104), and Enterococcus faecalis(DSM 20477).
(§5) For each experiment conducted, the bacteria stated above were revived from a cell bank stored at -80°C. […]
(§6) The assay to determine the MIC was conducted in 96-well plates testing 12 concentrations (serial dilutions) of each sample. 200 µL of the sample, prepared at a concentration of 2x with respect to the maximum concentration being tested, was dispensed into the first well and 100 µL medium was added to the subsequent wells, performing serial dilutions of 1:2 up to 12th well. Finally, 100 µL of each microorganism at a concentration of 10^5 was inoculated into each well.
(§7) Two antibiotics were used as controls: Fosfomycin (Sigma) and Ceftriaxone (Sigma) at different final concentrations based on the microorganism utilised; both the antibiotics were dissolved in sterile water and then filtered with 0.22 µm filters.
(§8) Growth was tested and the sterility of the medium and of the product was tested. The antimicrobial activity of the D-mannose was also assessed individually. The plates thus prepared were incubated at 37°C for 24h and the results were then observed (Figure 1). The final concentrations tested for each product analysed are stated in Table 2.
A general note: Broth dilution looks for growth in wells or tubes with falling amounts of substance.

In test [3] the test system is Klebsiella pneumoniae (DSM 30104). The test is described as above. In kind it is cell-based. The conditions noted are these: K. pneumoniae; range tested: Comp. 1 100-0.05 g/L, D-mannose 65-0.03 g/L; 24 h. As for the experimental part:
as §2, §3, §4, §5, §6, §7, §8

The test system of test [4] is Enterococcus faecium. Described as above. As to conditions: E. faecium; range tested: Comp. 1 100-0.05 g/L, D-mannose 65-0.03 g/L; 24 h. In kind it is cell-based.
The test system of another test is IL-8. In words: Anti-inflammatory activity: IL-8 production induced by TNFα, ELISA. Type of test: cell-based, human. As to conditions: 0.2 µg/mL TNFα, 6 hours. From the text: We assessed the capacity of the product Comp. 1 in Example 10 to inhibit or reduce the inflammatory state induced, in the same cells as in the previous example, by pro-inflammatory cytokine TNFα. This treatment led to the production of interleukin 8 (IL-8), which is cause of the "recruitment" of white blood cells to the site of inflammation. The IL-8 levels are directly proportional to the intensity of said inflammation.
The 6 product concentrations utilised in the anti-inflammatory test were chosen based on the cell viability test results. […] This is because the product per se leads to the reduction, and therefore the staining, of the MTT.
We first determined the optimal amount of TNFα to perform the test. […] The treatment was performed at 37°C and 5% CO2 for a total of 6 hours; aliquots of 200 µL of the growth medium were taken at the start of the treatment (T0) and after 1, 2, 4 and 6 hours, and then analysed by ELISA test. […]
Anti-inflammatory drug dexamethasone (dex) at a concentration of 0.1 mg/mL was utilised as a positive control. The treatment was performed for 6 hours, at the end of which as aliquots of 200 µL of the growth medium were taken and then analysed by ELISA test. […] The quantification was performed by setting up a calibration curve with different concentrations of a standard IL-8 solution, supplied with the kit. […]
Background: ELISA stands for enzyme-linked immunosorbent assay.

Test [5] concerns Enterococcus Faecium DSM 20477. In words: MBIC test of composition versus its components, crystal violet absorbency at 595 nm. In kind it is cell-based. The conditions noted are these: E. faecium MBIC. As for the experimental part:
(§9) The composition of Example 1 was tested to assess the capacity to inhibit the formation of biofilm shown by the following microorganisms: • Klebsiella Pneumoniae DSM 30104 • Enterococcus Faecium DSM 20477
(§10) The bacteria stated above were revived from the working cell bank, stored at -80°C, for each experiment conducted.
(§11) The tests were conducted on the following formulations: • Mannose 3000 mg + NAC 600 mg + PEA 600 mg (i.e. composition Example 1) • Mannose 3000 mg + NAC 600 mg • PEA 600 mg
(§12) The three formulations were dissolved at 100 gr/l in sterile TSB/TSYEM medium and then utilised to perform the MBIC test as follows.
(§13) MBIC 48-well plates were utilised for the determination. 800 µL sample, prepared at a concentration of 2x with respect to the maximum concentration being tested, was dispensed into the first well and 400 µL medium was added to the subsequent wells, performing serial dilutions of 1:2 up to the 8th well. Finally, 400 µL of each microorganism at a concentration of 10^5 was inoculated into each well. The multiwell plates were incubated at 37°C for 24 hours and then the supernatant present was removed, together with the planktonic bacteria not attached to the plate.
(§14) The biofilm was then washed 3 times with sterile deionised water and subsequently the cells were fixed by means of incubation at 60°C for 2 hours, before being stained with crystal violet. The crystal violet staining was performed to assess the effect of the product and the components thereof on the biofilm formation. 200 µL of 0.02% crystal violet dissolve in deionised water was dispensed into each well and, after 5 minutes of incubation at room temperature, each well was finally washed three times with sterile deionised water. The biofilm inhibition activity was viewed by microscopic observation under stereomicroscope.
(§15) At the end of the microscopic observation of the condition of the biofilm by staining, the stain fixed to the biofilm treated was extracted utilising 100% methanol for 5 minutes at room temperature. The methanolic extract thus obtained was analysed under spectrophotometer to measure the absorbency at 595 nm. As the solution stain intensity obtained is proportional to the biofilm remaining, absorbency is a quantitative parameter which can be used to measure the amount of biofilm. Absorbency was therefore utilised to determine the biofilm decrease percentage by comparing the data obtained following treatments against the untreated biofilm control.

Test [6] has as its system Klebsiella Pneumoniae DSM 30104. The description is as above. Type of test: cell-based. As to conditions: MBIC K. pneumoniae. As for the experimental part:
as §9, §10, §11, §12, §13, §14, §15

The subject of test [7] is Enterococcus faecium. In words: MBEC test of composition versus its components, 24 h preformed biofilm, crystal violet. Type of test: cell-based. The conditions noted are these: MBEC E. faecium.
Protocol: To determine the minimum biofilm eradication concentration, 48-well plates were utilised. The microorganisms were incubated for 24 h at 37°C to allow the formation of the biofilm. Once formed, the biofilms were treated with the composition in Example 1 and the respective components (as per Example 17) to eradicate the biofilm. In particular, after the formation of the biofilm, the supernatant was suctioned and replaced with solutions containing decreasing concentrations of the product. The plates thus prepared were incubated for 24 h at 37°C. At the end of the incubation time, the supernatant present in each well was removed, together with the bacteria that was not attached to the plate and following the washes with sterile deionised water the plates were incubated at 60°C for 2 hours to fix the cells before the staining with crystal violet. The crystal violet staining was performed to assess the effect of the product and of the components thereof on the removal of the biofilm. 200 µL of crystal violet dissolved in deionised water at a concentration of 0.02% was dispensed into each well and, after 5 minutes of incubation at room temperature, each well was washed three times with sterile deionised water. The biofilm eradication activity was viewed under microscopic observation.

SMILES strings stand for the structures.

Turning to `O=C[C@@H](O)[C@@H](O)[C@H](O)[C@H](O)CO` [D-mannose], the “concentration of the mannose alone needed for the same efficaciousness as Comp. 1” value was “approximately 10 times” with Klebsiella pneumoniae (K pneumoniae biofilm), “approximately 10 times” in the test on Enterococcus faecium [1] (E. faecium biofilm) and “approximately 2.5 times” in the test on Escherichia coli (E. coli biofilm). Moreover, the “concentration active on biofilm formation” value in the test on Klebsiella pneumoniae (K. pneumoniae, 24 h) turned out to be 8.13 g/L; in the test with Escherichia coli (E. coli, 24 h), 32.5 g/L. Also, in the test on Enterococcus faecium [1] (E. faecium, 24 h), the “concentration with evident activity on the biofilm” value is 65 g/L. The antimicrobial activity entry (in test [2]; in test [3]; with Enterococcus faecium [4]) was “did not demonstrate any antimicrobial activity” throughout.

In the case of `C[C@@H]1C[C@H]2[C@@H]3CCC4=CC(=O)C=C[C@]4(C)[C@@]3(F)[C@@H](O)C[C@]2(C)[C@@]1(O)C(=O)CO` [Dex, dexamethasone], the “concentration of IL-8 with respect to the cells treated solely with TNFα” value in the test with IL-8 (Dex 0.1 mg/mL, TNFα alone = 100) is given as 69%. Besides, the “IL-8 produced less than that produced by the cells treated solely with TNFα” value with IL-8 (Dexamethasone 0.1 mg/mL) was found to be 31%.

For the molecule `CCCCCCCCCCCCCCCC(=O)NCCO` [PEA, palmitoylethanolamide], the “Abs 595 nm” value in test [5] (3.13 g/L product of Example 1, components at the same concentration as in the composition, untreated biofilm 0.318) is reported as 0.304; in test [6] (1.56 g/L product of Example 1, components at the same concentration as in the composition, untreated biofilm 0.176), 0.129; with Enterococcus faecium [7] (24 h biofilm, 24 h treatment, untreated biofilm 2.09), 2.098. The “% decrease” value worked out at 4% in test [5] (treated versus untreated biofilm, 3.13 g/L product of Example 1); 26.70% in [6] (treated versus untreated biofilm, 1.56 g/L product of Example 1); 0% in the test with Enterococcus faecium [7] (treated versus untreated biofilm).
